Here are results for nine molecules from patent publication US6451809B2 (dated 2002).

The melting point is the temperature of the solid-liquid transition. Regarding `Cc1ccc(CNC(=O)C2=C3N(CCC2=O)c2ccccc2N3CCN(C)C)cc1`, the melting point is 120 to 122 °C.

Turning to `CCNCCOc1ccc(NC(=O)C2=C(O)CCn3c2nc2ccccc23)cc1.Cl`, the melting point fell in the range of 60 to 65 °C.

As for `Cl.O=C(Nc1ccc(OCCN2CCCC2)cc1)C1=C(O)CCn2c1nc1ccccc12`, the melting point was in the range of 130 to 142 °C.

`CCN(CC)CCOc1ccncc1NC(=O)C1=C(O)CCn2c1nc1ccccc12.Cl` yielded a melting point of 175 to 178 °C.

In the case of `Cl.O=C(Nc1cnccc1OCCN1CCCC1)C1=C(O)CCn2c1nc1ccccc12`, the melting point lay within 170 to 174 °C.

Molecule `Cl.O=C(Nc1cnccc1OCCN1CCCCC1)C1=C(O)CCn2c1nc1ccccc12` showed a melting point of 225 to 230 °C.

Take `Cl.O=C(Nc1cnccc1OCCOCCN1CCCC1)C1=C(O)CCn2c1nc1ccccc12`: the melting point lay in the range of 55 to 65 °C.

As to `Cl.O=C(Nc1cnccc1OCCCN1CCCC1)C1=C(O)CCn2c1nc1ccccc12`, the melting point lay within 60 to 68 °C.

`CN(C)CCN1C2=C(C(=O)NCc3ccccc3Cl)C(=O)CCN2c2ccccc21` registered a melting point of 138 to 140 °C.
